Like-named read-outs stand apart in the source and are kept apart here.
Key:
[1] = test system: thrombus formation in the jugular vein; experiment: Anti-venous thrombotic effect, 125I fibrinogen technique in rabbits; format: in vivo
From the text: Also, a thrombosis is detectable, for example, from a patient's conditions symptomatically perceivable by a skilled medical practitioner and well known to the art of medicine. Objectively, various methods are available, including venography, impedance plethysmography, doppler ultrasound and the 1251-fibrinogen test (see, for example, the articles by Kakkar, "Archives of Surgery", 104, page 152 (1972) and by Kelton, J.G. et al, Journal of Clinical Investigation, Vol. 62, pgs. 892-895, (1978)).
The anti-venous thrombotic effect of sodium bisulphite was evaluated in rabbits by using the 1^125 fibrinogen technique described above.
Each rabbit was continuously infused with aqueous sodium bisulphite solution at the rate of 460 mg/kg per hr. (2.97 grams) (animal body weight 2.3 kg).
After 5 hours, the animal was sacrificed and the radioactive fibrinogen accumulated in the damaged jugular vein was determined. The radioactivity in the contra-lateral (undamaged) jugular vein was also determined, to serve as a control. Concurrently, another rabbit was subjected to the same procedure, but was given only a standard sodium chloride solution, as a control.

human plasma [2] = experiment: Prothrombin Time, Example 4; format: biochemical
From the text: (§1) The evaluation procedure used is that described in "Human Blood Coagulation, Haemostasis and Thrombosis", edited by Rosemary Biggs, published by Blackwell Scientific Publications, Oxford, England (2nd Edition), pages 670-705, 1976. […]

[3] = PT of coded and various agents, Example 6; format: biochemical
From the text: A variety of agents were coded and evaluated under a code designation. Among these compounds, thiouracil, mercaptosuccinic acid, thiosemicarbazide, phenothiazine and sodium thiosulphate were included, so as to compare sodium bisulphite with certain compounds mentioned in USP 4,148,855.
After determination of PT and PTT values, the coded compounds were decoded.
The results are shown in Table V, where mean values of 5 replications in each case are reported. […] This procedure was repeated with some additional compounds on two different days using a different control on each day.

Factor V = target: T1, Factor V (Homo sapiens, UniProt P12259); experiment: Factor V assay, Example 4; format: biochemical; conditions: Control 75
T1 construct: from tissue; host or cells: human plasma
T1 sequence (P12259 29-2224): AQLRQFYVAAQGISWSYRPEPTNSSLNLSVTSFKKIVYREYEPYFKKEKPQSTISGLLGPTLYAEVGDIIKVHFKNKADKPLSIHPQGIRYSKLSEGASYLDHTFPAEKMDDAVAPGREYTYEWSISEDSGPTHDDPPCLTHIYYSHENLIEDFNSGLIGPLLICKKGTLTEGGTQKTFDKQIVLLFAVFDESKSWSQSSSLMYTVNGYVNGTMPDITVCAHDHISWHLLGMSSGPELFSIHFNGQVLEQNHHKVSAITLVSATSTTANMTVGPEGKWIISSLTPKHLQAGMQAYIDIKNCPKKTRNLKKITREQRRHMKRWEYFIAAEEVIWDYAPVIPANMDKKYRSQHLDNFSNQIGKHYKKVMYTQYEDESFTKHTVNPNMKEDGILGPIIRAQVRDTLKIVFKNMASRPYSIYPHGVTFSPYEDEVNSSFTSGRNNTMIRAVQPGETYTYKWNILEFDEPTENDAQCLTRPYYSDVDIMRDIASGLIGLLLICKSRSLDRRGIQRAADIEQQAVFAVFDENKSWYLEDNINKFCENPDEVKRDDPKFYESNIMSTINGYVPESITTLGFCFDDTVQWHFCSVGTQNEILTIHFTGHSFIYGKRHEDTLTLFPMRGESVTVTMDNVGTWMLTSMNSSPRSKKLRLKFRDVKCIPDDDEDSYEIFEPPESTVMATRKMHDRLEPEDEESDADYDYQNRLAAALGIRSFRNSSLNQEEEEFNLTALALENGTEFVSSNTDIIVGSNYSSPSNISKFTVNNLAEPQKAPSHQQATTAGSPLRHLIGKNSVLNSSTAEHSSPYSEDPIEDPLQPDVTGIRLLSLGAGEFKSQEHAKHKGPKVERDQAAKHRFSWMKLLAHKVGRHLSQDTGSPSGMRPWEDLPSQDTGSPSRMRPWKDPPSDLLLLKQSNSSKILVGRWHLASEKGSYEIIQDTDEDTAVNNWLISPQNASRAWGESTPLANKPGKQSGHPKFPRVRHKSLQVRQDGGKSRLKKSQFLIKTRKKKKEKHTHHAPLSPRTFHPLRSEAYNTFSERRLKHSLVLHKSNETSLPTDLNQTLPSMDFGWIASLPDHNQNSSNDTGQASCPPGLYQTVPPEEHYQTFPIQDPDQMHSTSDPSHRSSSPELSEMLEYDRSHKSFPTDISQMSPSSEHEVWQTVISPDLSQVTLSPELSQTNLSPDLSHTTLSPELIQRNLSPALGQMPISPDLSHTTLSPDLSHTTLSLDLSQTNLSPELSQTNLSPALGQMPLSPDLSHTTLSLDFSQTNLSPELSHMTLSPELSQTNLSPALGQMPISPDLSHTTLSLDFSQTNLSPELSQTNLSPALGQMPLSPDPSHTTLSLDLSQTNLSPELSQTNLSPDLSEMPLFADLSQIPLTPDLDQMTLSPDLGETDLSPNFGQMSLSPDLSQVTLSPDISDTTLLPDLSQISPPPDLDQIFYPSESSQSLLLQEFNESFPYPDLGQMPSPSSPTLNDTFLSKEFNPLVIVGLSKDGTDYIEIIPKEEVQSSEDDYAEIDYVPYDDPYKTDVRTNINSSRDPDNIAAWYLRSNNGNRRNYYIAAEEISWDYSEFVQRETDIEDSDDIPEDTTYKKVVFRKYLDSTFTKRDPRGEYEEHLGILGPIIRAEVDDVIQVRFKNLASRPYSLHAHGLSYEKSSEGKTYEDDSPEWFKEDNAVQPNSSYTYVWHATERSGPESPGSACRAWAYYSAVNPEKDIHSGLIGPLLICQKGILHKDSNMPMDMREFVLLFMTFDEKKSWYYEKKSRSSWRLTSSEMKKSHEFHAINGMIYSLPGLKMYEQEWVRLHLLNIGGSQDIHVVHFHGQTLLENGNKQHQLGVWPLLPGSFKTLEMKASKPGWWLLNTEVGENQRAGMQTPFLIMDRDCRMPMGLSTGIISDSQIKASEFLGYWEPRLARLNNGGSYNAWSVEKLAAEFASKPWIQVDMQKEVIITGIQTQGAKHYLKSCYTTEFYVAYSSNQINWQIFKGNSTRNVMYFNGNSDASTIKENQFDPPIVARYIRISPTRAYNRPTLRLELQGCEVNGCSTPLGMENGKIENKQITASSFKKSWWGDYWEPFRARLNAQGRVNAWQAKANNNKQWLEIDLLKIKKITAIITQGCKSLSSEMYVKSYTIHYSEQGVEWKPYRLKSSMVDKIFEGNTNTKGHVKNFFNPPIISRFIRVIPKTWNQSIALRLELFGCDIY
From the text: as §1

[4] = test system: human, rabbit and rat plasma; experiment: PTT (partial thromboplastin time) in plasma in vitro, Example 3; format: biochemical; conditions: for PTT (seconds) Exp. 1 A / PTT (seconds) Exp. 2 A: active agent 0.5/ml, control
From the text: (§2) Sodium, potassium and ammonium bisulphites are found to prolong PT and PTT in a dose-related fashion.
(§3) The evaluation procedure used is that described in "Human Blood Coagulation, Haemostasis and Thrombosis", edited by Rosemary Biggs, published by Blackwell Scientific Publications, Oxford, England (2nd Edition), pages 670-705, 1976.

human plasma [5] = experiment: Blood coagulation factors by standard procedures (Biggs), human plasma; format: biochemical; conditions: 5 mg/ml
Protocol: The effect of U.S.P. grade sodium bisulphite on blood coagulation factors was evaluated by standard procedures (Biggs) and the results are shown in Table III below.
The effect is directly proportional to dose.

F IX = target: T2, F IX (Homo sapiens, UniProt P00740); experiment: Factor IX assay, Example 4; format: biochemical; set-up: F IX: unit not given beside the values; conditions: for V IX: solution D; for V IX / F IX: Control 66
T2 construct: from tissue; host or cells: human plasma
T2 sequence (P00740 47-461): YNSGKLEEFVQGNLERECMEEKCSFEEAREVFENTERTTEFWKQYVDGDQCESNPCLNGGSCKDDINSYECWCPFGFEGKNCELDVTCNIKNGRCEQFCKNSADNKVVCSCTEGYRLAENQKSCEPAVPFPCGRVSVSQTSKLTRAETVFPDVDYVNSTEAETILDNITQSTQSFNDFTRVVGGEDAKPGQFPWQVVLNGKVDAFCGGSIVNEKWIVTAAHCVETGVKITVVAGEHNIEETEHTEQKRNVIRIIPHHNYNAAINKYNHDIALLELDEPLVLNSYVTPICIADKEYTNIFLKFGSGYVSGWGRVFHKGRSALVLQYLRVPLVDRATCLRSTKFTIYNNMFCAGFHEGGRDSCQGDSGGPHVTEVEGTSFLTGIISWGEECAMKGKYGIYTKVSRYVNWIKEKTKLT
From the text: as §1

F XII = target: T3, F XII (Homo sapiens, UniProt P00748); experiment: Factor XII assay, Example 4; format: biochemical; conditions: for F XII: Control 86
T3 construct: from tissue; host or cells: human plasma
T3 sequence (P00748 20-615): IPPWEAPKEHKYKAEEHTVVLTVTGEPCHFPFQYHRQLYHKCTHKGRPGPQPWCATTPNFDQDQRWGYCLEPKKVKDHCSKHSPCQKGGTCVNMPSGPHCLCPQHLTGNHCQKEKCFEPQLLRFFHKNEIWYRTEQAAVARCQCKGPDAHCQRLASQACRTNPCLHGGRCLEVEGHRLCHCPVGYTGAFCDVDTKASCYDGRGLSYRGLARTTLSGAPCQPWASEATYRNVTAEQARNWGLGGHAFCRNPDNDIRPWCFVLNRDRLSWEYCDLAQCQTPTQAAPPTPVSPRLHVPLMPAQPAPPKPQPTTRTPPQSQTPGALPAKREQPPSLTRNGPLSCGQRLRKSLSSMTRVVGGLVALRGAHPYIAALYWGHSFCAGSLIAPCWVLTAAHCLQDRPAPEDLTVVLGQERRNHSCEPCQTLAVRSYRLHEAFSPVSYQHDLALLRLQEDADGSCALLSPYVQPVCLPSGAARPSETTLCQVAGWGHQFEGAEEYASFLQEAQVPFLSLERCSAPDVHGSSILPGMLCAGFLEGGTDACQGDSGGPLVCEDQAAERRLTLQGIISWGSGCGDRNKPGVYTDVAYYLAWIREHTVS
From the text: as §1

[6] = test system: human, rabbit and rat plasma; experiment: PT (prothrombin time) in plasma in vitro, Example 3; format: biochemical
From the text: as §2, §3

[7] = Sodium bisulphite 0.01 mg/ml, solution D
[8] = Sodium bisulphite 0.05 mg/ml, solution D
[9] = Sodium bisulphite 0.1 mg/ml, solution D
[10] = Sodium bisulphite 0.5 mg/ml, solution D
[11] = Sodium bisulphite 1.0 mg/ml, solution D
[12] = Sodium bisulphite 5.0 mg/ml, solution D
[13] = chemical grade sodium bisulphite 0.01 mg/ml
[14] = chemical grade sodium bisulphite 0.05 mg/ml
[15] = chemical grade sodium bisulphite 0.1 mg/ml
[16] = chemical grade sodium bisulphite 0.5 mg/ml
[17] = chemical grade sodium bisulphite 1.0 mg/ml
[18] = chemical grade sodium bisulphite 5.0 mg/ml
[19] = 0.5 mg/ml, human, rabbit and rat plasma in vitro, dose-related
[20] = Test sequence A, active agent 0.5/ml, control

## Sodium bisulphite
[1]; continuous infusion 460 mg/kg per hr, 5 hours, control given sodium chloride solution
  radioactivity (radioactive fibrinogen) in damaged jugular vein, control rabbit relative to infused rabbit: 7 times
[1]; other rabbits similarly evaluated, apparently overdosing
  death of other rabbits during infusion: died before the experiment was completed
Human plasma [2]; Sodium bisulphite 0.01 mg/ml, solution D, Control 34.67
  PT: 33.37 s
Human plasma [2]; Sodium bisulphite 0.05 mg/ml, solution D, Control 34.67
  PT: 34.00 s
Human plasma [2]; Sodium bisulphite 0.1 mg/ml, solution D, Control 34.67
  PT: 34.85 s
Human plasma [2]; Sodium bisulphite 0.5 mg/ml, solution D, Control 34.67
  PT: 42.73 s
Human plasma [2]; Sodium bisulphite 1.0 mg/ml, solution D, Control 34.67
  PT: 85.33 s
Human plasma [2]; Sodium bisulphite 5.0 mg/ml, solution D, Control 34.67
  PT: >150 s
Human plasma [2]; chemical grade sodium bisulphite 0.01 mg/ml, Control 12.20
  PT: 12.30 s
Human plasma [2]; chemical grade sodium bisulphite 0.05 mg/ml, Control 12.20
  PT: 12.47 s
Human plasma [2]; chemical grade sodium bisulphite 0.1 mg/ml, Control 12.20
  PT: 12.90 s
Human plasma [2]; chemical grade sodium bisulphite 0.5 mg/ml, Control 12.20
  PT: 16.10 s
Human plasma [2]; chemical grade sodium bisulphite 1.0 mg/ml, Control 12.20
  PT: 22.38 s
Human plasma [2]; chemical grade sodium bisulphite 5.0 mg/ml, Control 12.20
  PT: >150 s
[3]
  PT: 22.42 s
[3]; Table V, coded agents 0.5 mg/ml, Control 12.92
  PT: 23.06 s
Factor V; [7]
  Factor V: 74%
Factor V; [8]
  Factor V: 72%
Factor V; [9]
  Factor V: 80%
Factor V; [10]
  Factor V: 70%
Factor V; [11]
  Factor V: 60%
Factor V; [12]
  Factor V: 54%
Factor V; [13]
  Factor V: 70
Factor V; [14]
  Factor V: 68
Factor V; [15]
  Factor V: 68
Factor V; [16]
  Factor V: 64
Factor V; [17]
  Factor V: 66
Factor V; [18]
  Factor V: 60
[4]; [19]
  prolongation of PTT: significantly prolong
[4]; Test sequence A
  PTT (seconds) Exp. 1 A: 128.2 s
  PTT (seconds) Exp. 2 A: 121.9 s
[4]; Test sequence B
  PTT (seconds) Exp. 1 A: 128.2 s
  PTT (seconds) Exp. 2 A: 162.6 s
Human plasma [5]
  coagulation of human plasma: completely disrupted
F IX; 0.5 mg per ml, human plasma
  effect on Factor IX: significant inhibitory effect
F IX; Sodium bisulphite 0.01 mg/ml
  V IX: 60%
F IX; Sodium bisulphite 0.05 mg/ml
  V IX: 52%
F IX; Sodium bisulphite 0.1 mg/ml
  V IX: 56%
F IX; Sodium bisulphite 0.5 mg/ml
  V IX: 4%
F IX; Sodium bisulphite 1.0 mg/ml
  V IX: 3%
F IX; Sodium bisulphite 5.0 mg/ml
  V IX: <1%
F IX; [13]
  F IX: 49
F IX; [14]
  F IX: 44
F IX; [15]
  F IX: 40
F IX; [16]
  F IX: 5
F IX; [17]
  F IX: 1
F IX; [18]
  F IX: <1
F XII; 0.5 mg per ml, human plasma
  effect on Factor XII: significant inhibitory effect
F XII; [7]
  F XII: 94%
F XII; [8]
  F XII: 87%
F XII; [9]
  F XII: 79%
F XII; [10]
  F XII: 17%
F XII; [11]
  F XII: 3%
F XII; [12]
  F XII: <1%
F XII; [13]
  F XII: 104
F XII; [14]
  F XII: 102
F XII; [15]
  F XII: 75
F XII; [16]
  F XII: 25
F XII; [17]
  F XII: 9
F XII; [18]
  F XII: <1
[6]; [19]
  prolongation of PT: significantly prolong
[6]; [20]
  PT (seconds) Exp. 1 A: 22.1 s
  PT (seconds) Exp.2 A: 23.2 s
[6]; Test sequence B, active agent 0.5/ml, control
  PT (seconds) Exp. 1 A: 25.5 s

From patent EP0055702B1, “Antithrombotic treatment” (priority 1980, dated 1982)
